Measured values: patent US6723716B1, “7-acylamino-3-heteroarylthio-3-cephem carboxylic acid antibiotics and prodrugs thereof” (Essential Therapeutics, Inc., priority 1999, dated 2004)

Columns and labels:
S. aureus ATCC29213 = test: Human serum binding effect: MIC with and without human serum; type: cell-based, Staphylococcus aureus; conditions: 1:1 human serum:MHB
Experimental: The approximate measurement of the degree of binding of the compound to human serum proteins can be achieved by determination of the effect of the addition of human serum to the medium in which the MIC values against a selected bacterial strain is determined. The ratio of the MIC value obtained in presence of added human serum to the MIC value determined without serum addition was used as a measure of serum binding and the results of such determination are presented below in Table 2.
In addition to the standard MIC determination described above, the staphylococcal strain ATCC29213 is also tested in a ratio 1:1, human serum:MHB to obtain a preliminary estimate of the bioactivity of test compounds in serum: The assay was performed in Human Serum and Mueller-Hinton Broth (HSMHB) with a final bacterial inoculum of 1×10^6 CFU/mL (from an early-log phase culture) and a final volume of 100 μL. Control drugs, including imipenem, vancomycin, dicloxacillin, and new compounds were prepared in double-concentrated Mueller-Hinton broth at a concentration equivalent to 4-fold the desired final concentration. Dilution of compounds were prepared directly in the plates by serial 2-fold dilution in double-concentrated Mueller-Hinton using a multichannel pipette. Positive and negative growth controls were included in each plate. […] The inoculum was prepared by diluting the early log-phase (1 h) culture 1:100 with fresh double-concentrated Mueller-Hinton broth. A volume of 25 μL of the inoculum was added to each well. […] The exact inoculum was determined by applying 10 μl of 10-fold serial dilution of the bacterial suspension on TSA. After overnight incubation at 35° C., colony forming units were manually counted.

rat serum proteins = test: Serum binding determination by ultrafiltration/HPLC; type: in vitro ADME; conditions: by HPLC
Experimental: (§1) The more accurate measurement of binding of selected cephalosporin compounds was performed using HPLC as described below.
(§2) 1. Serum is placed in a shaking water bath preheated to 37±2° C. for 5 to 10 minutes to heat serum to 37° C. Serum pH is measured and recorded, while serum is 37° C. using pH paper. Measurements are taken twice, 3 minutes apart. If the pH is not 7.4±0.4 then the pH is adjusted by blowing 5% CO2/95% O2 over the serum. After blowing for several minutes, serum is heated to 37° C. and measurements are taken twice, 3 minutes apart using pH paper to determine the pH. Store at 4° C. The serum is stable for 7 days. Always check the pH before each use.
(§3) 2. Before any centrifugation, the centrifuge temperature must be adjusted to 25±2° C. Preheat the centrifuge by spinning for 45 minutes at the same speed to be used in the assay (1900 g) with two tubes of water in the rotor and the temperature set to 25° C. When the centrifuge stops immediately check the temperature of the tubes of water with a calibrated thermometer. The temperature of the tubes of water must be 25±2° C. […] Continue spinning and measuring the temperature and adjusting the setting until the temperature is 25±2° C.
(§4) 3. Prepare blank ultrafiltrate by pipetting blank pH 7.4 serum into an Amicon Centrifree Micropartition devices, centrifuge: fixed angle rotor, 1900 g, 25° C. for 20 minutes. Heat ultrafiltrate in a shaking water bath preheated to 37° C. Measure ultrafiltrate pH and adjust to the pH of the serum (7.4±0.2).
(§5) 4. Pipette 190 ul of blank ultrafiltrate into a set of labeled 1.7 mL polypropylene microfuge tubes for 3 of each level. Pipette 10 μL of the appropriate standard stock 50, 200, 1000 μg/mL to make standards 2.5, 10, and 50 μg/mL respectively. Vortex each tube well. One set of the standard samples are mixed 1:1 with 0.2 M acetic acid and injected onto the HPLC (MSTD). These samples are the membrane standards and will be used to compare to the other standards. Pipette 190 ul of ultrafiltrate and spike with 10 ul of whatever solution (e.g. water) the standards are prepared in to make the zero standard.
(§6) 5. Pipette 475 μL of blank heated pH 7.4 serum into a set of labeled 1.7 mL polypropylene microfuge tubes for 2 of each (Serum A and Serum B). Pipette 25 μL of the 1000 μg/mL standard stock into each tube, vortex each tube well to make serum standard 50 μg/mL. Remove 100 μL of serum and deproteinate with 200 μL 4% TCA while vortexing to make serum time 0 (serum 50, T0). Place serum tubes in a shaking water bath at 37° C. for 10 minutes. Pipet 100 μL of serum out and deproteinate with 200 μL 4% TCA, to make serum time 10 min (serum 50, T10). Pipet 200 ul serum standard 50 μg/mL into an ultrafiltration device, which is not treated with TCA, to determine free drug in samples (Rat Serum 50).
(§7) 6. Transfer serum and standard samples to labeled Amicon Centrifree Micropartition filters, and centrifuge: 1900 g, 25° C. for 10 minutes. The extracted serum samples (T0 and T10) are spun down and supernatant is loaded into HPLC vials.
(§8) 7. 100 μL of ultrafiltrate sample and 100 μL of 0.2 M acetic acid were mixed together to stabilize the compound in ultrafiltrate.
(§9) 8. Transfer entire stabilized ultrafiltrate solution to a labeled autoinjector HPLC vial cap with Teflon septa, and inject on HPLC.
(§10) Peak height or area is used in a weighted linear regression.

rhesus serum proteins = test: as above; type: in vitro ADME; conditions: by HPLC
Experimental: as §1, §2, §3, §4, §5, §6, §7, §8, §9, §10

human serum proteins = test: as above; type: in vitro ADME; conditions: by HPLC
Experimental: as §1, §2, §3, §4, §5, §6, §7, §8, §9, §10

[1] = In vitro stability of compounds in rat serum; type: in vitro ADME
Experimental: In general, compounds from the class of 7-acylamino-3-heteroarylthio-3-cephem carboxylic acids have higher chemical reactivity and lower stability towards chemical or enzymatic decomposition than most typical cephalosporins. […] Results shown in Table 2 represent percentage loss of the initial amount of cephalosporin compound upon 60 min incubation in rat serum.
Procedure for measuring degree of degradation of cephalosporin compounds in rat serum was as follows:
Fresh control rat serum (heparinized and stored frozen) is preincubated at 37° C. for 15 min in a shaking water bath. pH is measured using test strips. 25 μL of a 2 mg/mL solution cephalosporin compound (in water) of is then added to each matrix to make 1000 μL. Solutions were incubated at 37° C. 100 ul of solution was taken out at time=0, 15, 30, and 60 min post dose and added 200 μL 4% trichloroacetic acid, vortexed, and centrifuged for 10 min at 14,000 rpm in an Eppendorf microcentrifuge. 25 μL of each supernatant was injected onto HPLC. Experiment was repeated using 25 μL of a 0.2 mg/mL cephalosporin compound. Degradation is measured as the percentage of HPLC peak area at time t relative to peak area at time 0.
HPLC conditions: Beckman Ultrasphere C18 column. 5 u. 4.6 mm×25 cm. 1 mL/min of 95% 0.1 M ammonium acetate, pH 6, 5% ACN going to 75% buffer/organic over 20 min. UV monitored at 254 and 280 nm.

[2] = system: S. aureus ATCC 13709 (Smith diffuse); test: Murine lethal bacteremic peritonitis (septicemia) efficacy; type: in vivo, mice
Experimental: 10 mice/group were injected intraperitoneally with 2.98×10^7 cfu S. aureus ATCC 13709 (Smith diffuse) and treated at 0 and 2 hrs post-challenge with serial two-fold doses of new cephalosporin antibiotic, imipenem and vancomycin subcutaneously in order to determine the ED50. Male Swiss-Webster mice weighing originally 24.2-26.1 g were obtained from Charles Rivers Labs, Hollister, Calif. Mice were housed 10 per cage and given free access to water and mouse chow.
Staphylococcus aureus ATCC 13709 (Smith diffuse) was grown overnight at 37° C. in Brain-heart Infusion broth (BHIB). The following morning, it was subcultured to fresh BHIB and incubated for 4-5 h at 37° C. The log-phase growth cells were washed once with physiological saline and adjusted to the desired concentration by correlation of absorbency at OD 600 nm with predetermined plate counts (NCCLS, 1994). The cell suspension was mixed with an equal volume of sterile 14% hog-gastric mucin (2). Inoculum was kept in an ice bath until used (<1 h).
Mice were challenged via an injection of 0.5 mL bacterial suspension intraperitoneally. The bacterial challenge was 2.98×10^7 cfu/mouse.
Imipenem (Primaxin IV; Lot 7294A), vancomycin (Vancocin; Lot 8MU60W), and new cephalosporin antibiotic were prepared by serial two-fold dilutions to concentrations of 0.078-0.005 mg/mL, 1.2-0.075 mg/mL, 0.3-0.02 mg/mL, 0.3-0.02 mg/mL and 0.3-0.02 mg/mL respectively in sterile water (1). All antibiotics were administered subcutaneously in 0.1 mL volumes at 0 and 2 hours post-challenge. Concentrations of all compounds are based on the weight of the bioactive ingredients.
The 50% effective dose (ED50) was calculated by the probit method (3) utilizing a program entitled Probit (Nycomed-Salutar).

[3] = Staphylococcus aureus, ATCC13709, sc, read-out: Efficacy in murine septicemia % survival

Structure (SMILES) | Human serum binding effect (ratio of MIC value determined with and without human serum added) (S. aureus ATCC29213) | Serum Binding rat (% of compound bound to serum) (rat serum proteins) [%] | Serum Binding rhesus (% of compound bound to serum) (rhesus serum proteins) [%] | Serum Binding human (% of compound bound to serum) (human serum proteins) [%] | stability of compounds in rat serum ([1]; Table 2 data) | Stability in rat serum (% loss) ([1]; after 60 min exposure to rat serum, 37° C., HPLC) [%] | responders at 0.625 mg/kg [2, 3] [%] | responders at 1.25 mg/kg [2, 3] [%] | responders at 2.5 mg/kg [2, 3] [%] | Efficacy in murine septicemia % survival ([2]; dose 5 mg/kg s.c. at 0 and 2 h post-challenge)
N=C(N)NCCSCc1ncccc1SC1=C(C(=O)O)N2C(=O)[C@@H](NC(=O)/C(=N\O)c3nc(N)sc3Cl)[C@H]2SC1 [Cmpd 15, (7R)-7-[(Z)-2-(2-amino-5-chlorothiazol-4-yl)-2-(hydroxyimino)acetamido]-3-[2-(2-guanidinoethylthiomethyl)pyrid-3-ylthio]-3-cephem-4-carboxylic acid] | 2 | 76 | 88 | 83 | improved stability | 38 |  |  |  | 
CN[C@H](CC(C)C)C(=O)N[C@H]1C(=O)N[C@@H](CC(N)=O)C(=O)N[C@H]2C(=O)N[C@H]3C(=O)N[C@H](C(=O)N[C@H](C(=O)O)c4cc(O)cc(O)c4-c4cc3ccc4O)[C@H](O)c3ccc(c(Cl)c3)Oc3cc2cc(c3O[C@@H]2O[C@H](CO)[C@@H](O)[C@H](O)[C@H]2O[C@H]2C[C@](C)(N)[C@H](O)[C@H](C)O2)Oc2ccc(cc2Cl)[C@H]1O [Van., Vancomycin, reference compound] | 2 |  |  | 55 |  |  | 10 | 20 | 60 | 5/100%
